Where two headings read alike, the source gives them in different places.
Key:
[1] = tested on: human pulmonary artery endothelial cells (hPAECs); assay: BrdU Assay (proliferation), hPAEC; format: cell-based; settings: for effect on HPAEC proliferation (BrdU assay): dose response, FIG. 6; for IC50: Homo sapiens, Endothelial cell
Experimental: (§1) The effect of the compounds disclosed herein on the viability, proliferation, and apoptosis of human pulmonary artery endothelial cells (“hPAECs,”) and human pulmonary artery smooth muscle cells (“hPASMCs”) was determined using the PrestoBlue Assay (viability), CYQuant Direct or BrdU Assay (proliferation) or Tunel Assay (apoptosis), as described below.
(§2) HPAECs (1×10^4 cells/well) or HPASMCs (2.5×10^3 cells/well) were seeded in 96-well plates for 24 h in full-serum tissue culture medium. The full medium was removed prior to treatment with a NAMPT inhibitor prepared in medium containing 0.1% serum. NAMPT inhibitors were solubilized in 100% DMSO, unless otherwise indicated, prior to preparation of the dose response curve in 100% DMSO. The treatment dose response curve was diluted in 0.1% serum tissue culture medium and administered to cells for 24 h. DMSO diluted in the same medium was used as the vehicle control. Cell viability was measured according to the manufacturer's protocol by adding the PrestoBlue Cell Viability Reagent (ThermoFisher Scientific, #A13261) to cells for 20 min at 37° C. in a tissue culture incubator, followed by reading fluorescence at ex560/em590. Cell proliferation was measured, either in the same wells or in separate experiments, by adding the CyQuant Direct Confirmation Reagent (ThermoFisher Scientific, #C35011) for 1 h at 37° C. in a tissue culture incubator, followed by reading fluorescence at ex485/em538. Proliferation was also measured, in separate experiments, using the BrdU Cell Proliferation Assay (Calbiochem, #QIA58). After treatment with a NAMPT inhibitor for 24 h, BrdU was added to the cells in the presence of the inhibitor, for an additional 24 h and BrdU incorporation was detected according to the manufacturer's protocol. Apoptosis was analyzed by seeding cells (1×10^5 cells/well) in 6-well plates for 24 h in full-serum medium, followed by treatment with a NAMPT inhibitor for 24 h in full-serum medium. Tunel staining and detection was performed using the Tunel Assay Kit (Abcam, #ab66110) according to the manufacturer's protocol.

[2] = tested on: human pulmonary artery smooth muscle cells (hPASMCs); assay: BrdU Assay (proliferation), hPASMC; format: cell-based
Experimental: as §1, §2

[3] = biological target: T1, NAMPT (Homo sapiens, UniProt P43490); assay: CycLex NAMPT Colorimetric Assay; format: biochemical; settings: for IC50: CycLex NAMPT Colorimetric Assay Kit, read-out: NAMPT Inhibition IC50
T1 construct: purchased MBL International Corporation (CycLex NAMPT Colorimetric Assay Kit Ver.2)
Experimental: The ability of the compounds of the disclosure to inhibit NAMPT was determined using the CycLex NAMPT Colorimetric Assay Kit Ver.2 by MBL International Corporation.
The assay detects NAMPT activity in recombinant NAMPT or endogenous NAMPT immunoprecipiated from cell lysates according to the scheme shown in FIG. 3. In this method, NAMPT converts nicotinamide to nicotinamide mononucleotide (“NMN”). Subsequently, nicotinamide mononucleotide adenylyltransferase 1 (“NMNAT1”) converts NMN to NAD^+. Resultant NAD^+ can be measured by enzyme cycling reaction using alcohol dehydrogenase (“ADH”), diaphorase and WST-1.

[4] = Solubility (2.5% v/v DMSO/water); format: physicochemical
[5] = tested on: human pulmonary artery endothelial cells (hPAECs); assay: PrestoBlue Assay (viability), hPAEC; format: cell-based; settings: for effect on HPAEC viability: dose response, FIG. 4; for IC50: hPAEC, 24 h treatment
Experimental: as §1, §2

[6] = tested on: human pulmonary artery endothelial cells (hPAECs); assay: CyQUANT Direct Assay (proliferation), hPAEC; format: cell-based; settings: for effect on HPAEC proliferation (CYQuant Direct assay): dose response, FIG. 5; for IC50: hPAEC, 24 h treatment
Experimental: as §1, §2

[7] = tested on: vascular remodeling caused by PAH; settings: rat models; cited from earlier work
[8] = tested on: human pulmonary artery smooth muscle cells (hPASMCs); assay: PrestoBlue Assay (viability), hPASMC; format: cell-based; settings: dose response, FIG. 8
Experimental: as §1, §2

[9] = tested on: Sugen-Hypoxia-induced pulmonary hypertension; assay: Sugen-Hypoxia-induced pulmonary hypertension in rats; format: in vivo, rat; settings: 5 mg/kg every other day IP, days 35-49
Experimental: (§3) The ability of the compounds disclosed herein to attenuate pulmonary vascular remodeling associated with pulmonary arterial hypertension was determined using monocrotaline (“MCT”)-induced pulmonary hypertension as well as Sugen-Hypoxia-induced pulmonary hypertension in rats.
Sugen 10 mg/kg IP was injected in Sprague Dawley rats who were then exposed to 10% hypoxia for 21 days. After 21 rats were returned to normoxia for 14 days. After 35 when PH was established DGMS-RARI (5 mg/kg every other day) was injected intraperitonealy from days 35-49. At day 49 PH assessments (RVSP measurements via right heart catheterization, RVH measurement via assessment of the ratio between the weight of the right ventricle over the weight of the left ventricle+septum and assessment of right ventricular function via echocardiography) were performed.

[10] = tested on: monocrotaline (MCT)-induced pulmonary hypertension; assay: MCT-induced pulmonary hypertension in rats; format: in vivo, rat; settings: 5 mg/kg every other day IP, days 22-35
Experimental: as §3
MCT 60 mg/kg IP was injected in Sprague Dawley rats. After 21 days when PH was established DGMS-RARI (5 mg/kg every other day) was injected intraperitonealy from days 22-35. At day 35 PH assessments (RVSP measurements via right heart catheterization, RVH measurement via assessment of the ratio between the weight of the right ventricle over the weight of the left ventricle+septum and pulmonary vascular remodeling assessment of H&E stained pulmonary arteries) were performed.

[11] = Plasma concentration and biochemical parameters in MCT-induced rats; format: in vivo, rat
From the text: Moreover, significant abnormalities in biochemical parameters and electrolytes were not observed.

[12] = tested on: HepG2 cells; assay: Seahorse XF Metabolism Assay (Cell Energy Phenotype Test); format: cell-based; design: Baseline OCR / Stressed OCR / Baseline ECAR / Stressed ECAR: unit not given here
Experimental: The effect of the compounds disclosed herein on metabolism was determined using the Seahorse XF Cell Energy Phenotype Test Kit by Agilent Technologies. See Agilent Seahorse XF Cell Energy Phenotype Test Kit, User Guide, Manual Part Number 103325-400, Kit Part Number 103325-100, First Edition, March 2017 Agilent Technologies, Inc. This assay measures mitochondrial respiration and glycolysis under baseline and stressed conditions to determine baseline phenotype, stressed phenotype, and metabolic potential.

[13] = tested on: human pulmonary artery smooth muscle cells (hPASMCs); assay: CyQUANT Direct Assay (proliferation), hPASMC; format: cell-based; settings: dose response, FIG. 9
Experimental: as §1, §2

[14] = Homo sapiens, Endothelial cell, 24 h

T1 sequence (P43490 whole entry): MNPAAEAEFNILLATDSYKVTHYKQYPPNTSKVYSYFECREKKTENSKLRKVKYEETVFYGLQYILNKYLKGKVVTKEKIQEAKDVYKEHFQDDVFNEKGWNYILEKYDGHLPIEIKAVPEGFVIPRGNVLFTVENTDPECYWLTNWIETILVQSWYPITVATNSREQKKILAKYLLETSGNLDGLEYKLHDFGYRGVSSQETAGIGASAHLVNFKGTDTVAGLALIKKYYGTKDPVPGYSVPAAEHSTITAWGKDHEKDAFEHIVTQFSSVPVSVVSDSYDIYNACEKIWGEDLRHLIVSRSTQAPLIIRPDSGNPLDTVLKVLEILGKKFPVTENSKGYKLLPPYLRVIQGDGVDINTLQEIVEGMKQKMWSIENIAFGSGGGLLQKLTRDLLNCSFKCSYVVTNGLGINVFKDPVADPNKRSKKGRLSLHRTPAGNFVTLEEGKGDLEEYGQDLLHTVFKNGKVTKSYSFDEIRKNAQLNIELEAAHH

## CC1Cc2ccccc2N1C(=O)CCCCCNC(=O)/C=C/c1cccnc1 (stereo not shown)
[1]
  effect on HPAEC proliferation (BrdU assay): dose-dependently decrease cell proliferation
[2]; Homo sapiens
  IC50: 51.9 µM

## Cl.O=C(/C=C/c1cccnc1)NCCCCCCn1c(-c2ccccc2)cc2ccccc21 [DGMS-RARI•HCl]
[3]; 10 μM
  % NAMPT Inhibition at 10 μM: 98%
[3]
  IC50: 0.032 µM
[4]
  Solubility (2.5% v/v DMSO/water): Moderate

## O=C(/C=C/c1cccnc1)NCCCCCCN1c2ccccc2CCc2ccccc21 [DGMS-RAR-2]
[1]
  IC50: 1.31 µM
  effect on HPAEC proliferation (BrdU assay): dose-dependently decrease cell proliferation
[2]; Homo sapiens
  IC50: 1.5 µM
[3]
  IC50: 0.08 µM

## CC[Si]1(CC)c2ccccc2N(C(=O)CCCCCNC(=O)/C=C/c2cccnc2)C1C (stereo not shown) [DGMS-RAR-5•O3SMe]
[3]
  inhibition at 10 µM: 99%
  IC50: 0.014 µM
[4]
  Solubility (2.5% v/v DMSO/water): Good

## COCCOCCOCCOCCOC(=O)CCC(=O)Oc1ccc2c(ccn2CCCCCCNC(=O)/C=C/c2cccnc2)c1 [DGMS-RAR-mPEG3]
[3]
  inhibition at 10 µM: 97%
  IC50: 0.02 µM
[4]
  Solubility (2.5% v/v DMSO/water): good

## COCCOCCOCCOCCOC(=O)CC1CN(C(=O)CCCCCNC(=O)/C=C/c2cccnc2)c2ccccc21 (stereo not shown) [DGMS-RAR-PEG3]
[5]
  effect on HPAEC viability: dose-dependently decrease cell viability
[6]
  effect on HPAEC proliferation (CYQuant Direct assay): dose-dependently decrease cell proliferation
[3]
  IC50: 0.021 µM
[4]
  Solubility (2.5% v/v DMSO/water): Good

## CC[Si]1(CC)c2ccccc2N(C(=O)CCCCCNC(=O)/C=C/c2cccnc2)C1C (stereo not shown) [DGMS-RAR-5]
[1]
  effect on HPAEC proliferation (BrdU assay): dose-dependently decrease cell proliferation
[2]; Homo sapiens
  IC50: 102 µM
[3]
  IC50: 0.011 µM

## COCCOCCOCCOCCOC(=O)Cc1cn(CCCCCCNC(=O)/C=C/c2cccnc2)c2ccccc12 [DGMS-RAR-PEG2]
[5]
  effect on HPAEC viability: dose-dependently decrease cell viability
[3]
  inhibition at 10 µM: 97%
  IC50: 0.021 µM
[4]
  Solubility (2.5% v/v DMSO/water): Moderate

## N#CN=C(NCCCCCCOc1ccc(Cl)cc1)Nc1ccncc1 [CHS-828]
[7]
  vascular remodeling caused by PAH: prevent and reverse

## O=C(/C=C/c1cccnc1)NCCCCCC(=O)N1c2ccccc2CC1c1ccccc1 (stereo not shown) [DGMS-RAR-7]
[5]
  effect on HPAEC viability: dose-dependently decrease cell viability
  IC50: 1.59 µM
[6]
  effect on HPAEC proliferation (CYQuant Direct assay): dose-dependently decrease cell proliferation
  IC50: 1 µM
[1]
  IC50: 95.8 µM
  effect on HPAEC proliferation (BrdU assay): dose-dependently decrease cell proliferation
[2]
  IC50: 35400 µM
[3]
  IC50: 0.041 µM

## COC(=O)Cc1cn(CCCCCCNC(=O)/C=C/c2cccnc2)c2ccccc12 [5.2.3h]
[3]
  IC50: 0.1 µM

## O=C(/C=C/c1cccnc1)NCCCCCCN1c2ccccc2CCc2cc(Br)ccc21 [5.2.3d]
[3]
  IC50: 0.071 µM

## [2H][C@@H](C(=O)NCCCCCCn1ccc2cc(OC)ccc21)[C@@H]([2H])c1cccnc1 [5.2.3f D2]
[3]
  IC50: 0.665 µM

## Cc1cc2ccccc2n1CCCCCCNC(=O)CCc1cccnc1
[3]
  IC50: 0.97 µM

## O=C(O)Cc1cn(CCCCCCNC(=O)/C=C/c2cccnc2)c2ccccc12 [DGMS-RAR-PEG2A]
[3]
  inhibition at 10 µM: 98%
  IC50: 0.04 µM

## O=C(CCc1cccnc1)NCCCCCCn1ccc2cc(O)ccc21 [5.2.3t H2]
[3]
  IC50: 1.2 µM

## O=C(/C=C/c1cccnc1)NCCCCCCn1ccc2cc(OCc3ccccc3)ccc21 [DGMS-RAR-6•HO3SMe]
[3]; 10 μM
  % NAMPT Inhibition at 10 μM: 97%
[3]
  IC50: ~0.1 µM

## [2H][C@@H](C(=O)NCCCCCC(=O)N1c2ccccc2[Si](CC)(CC)C1C)[C@@H]([2H])c1cccnc1 (stereo partly shown) [DGMS-RAR-5D2]
[3]
  IC50: 0.668 µM

## O=C(/C=C/c1cccnc1)NCCCCCCn1c(-c2ccccc2)cc2ccccc21 [DGMS-RARI]
[8]
  effect on HPASMC viability: dose-dependently decrease cell viability
[9]
  degree of right ventricular dysfunction: decreased
  degree of right ventricular hypertrophy: decreased
  severity of elevations in RVSP: decreased
[5]; [14]
  IC50: 117 µM
[5]
  effect on HPAEC viability: dose-dependently decrease cell viability
[10]
  degree of pulmonary vascular remodeling: decreased
  degree of right ventricular hypertrophy: decreased
  severity of elevations in RVSP: decreased
[6]; [14]
  IC50: 2.88 µM
[6]
  effect on HPAEC proliferation (CYQuant Direct assay): dose-dependently decrease cell proliferation
[11]; 5 mg/kg
  abnormalities in biochemical parameters and electrolytes: not observed
[11]; 5 mg/kg intravenously, intraperitoneally and orally
  average concentration in rat plasma: decreased with time
[12]; HepG2, 80 nM
  Baseline ECAR: 16.16
  Baseline OCR: 98.19
  Metabolic Potential (% Baseline ECAR): 288.54 % Baseline ECAR
  Metabolic Potential (% Baseline OCR): 154.82 % Baseline OCR
  Stressed ECAR: 46.64
  Stressed OCR: 152.08
[12]; HepG2, 2 uM
  Baseline ECAR: 12.28
  Baseline OCR: 73.92
  Metabolic Potential (% Baseline ECAR): 334.84 % Baseline ECAR
  Metabolic Potential (% Baseline OCR): 154.18 % Baseline OCR
  Stressed ECAR: 37.11
  Stressed OCR: 111.06
[12]; HepG2, 10 uM
  Baseline ECAR: 18.28
  Baseline OCR: 60.26
  Metabolic Potential (% Baseline ECAR): 194.22 % Baseline ECAR
  Metabolic Potential (% Baseline OCR): 148.94 % Baseline OCR
  Stressed ECAR: 31.23
  Stressed OCR: 89.62
[12]; Homo sapiens, HepG2 cells, high doses (10 uM), read-out: inhibition of the maximal oxygen consumption rate
  inhibition at 10 µM: ~30%
[12]; physiological doses (≤80 nM)
  effect on cellular respiration: no effect on cellular respiration
[3]
  inhibition at 10 µM: 98%
  IC50: 0.014 µM

## CC[Si]1(CC)c2ccccc2N(C(=O)CCCCCNC(=O)/C=C/c2cccnc2)C1C.Cl (stereo not shown) [DGMS-RAR-5•HCl]
[8]
  effect on HPASMC viability: dose-dependently decrease cell viability
[3]; 10 μM
  inhibition at 10 µM: 98%
[3]
  IC50: 0.023 µM
[4]
  Solubility (2.5% v/v DMSO/water): Good
[13]
  effect on HPASMC proliferation (CYQuant Direct assay): dose-dependently decrease cell proliferation

— patent US11584766B2, “Nicotinamide phosphoribosyltransferase inhibitors and methods for use of the same” (THE TRUSTEES OF INDIANA UNIVERSITY, priority 2018, dated 2023)
